Source: ChEMBL document CHEMBL3860098, “Sulfamide as Zinc Binding Motif in Small Molecule Inhibitors of Activated Thrombin Activatable Fibrinolysis Inhibitor (TAFIa)” (J Med Chem, 2016)
Values belong to the molecule of their own block, whether it stands above or below them.

Assays:
Carboxypeptidase B2 = molecular target: T1, Carboxypeptidase B2 (Homo sapiens, UniProt Q96IY4)
T1 sequence (Q96IY4 whole entry): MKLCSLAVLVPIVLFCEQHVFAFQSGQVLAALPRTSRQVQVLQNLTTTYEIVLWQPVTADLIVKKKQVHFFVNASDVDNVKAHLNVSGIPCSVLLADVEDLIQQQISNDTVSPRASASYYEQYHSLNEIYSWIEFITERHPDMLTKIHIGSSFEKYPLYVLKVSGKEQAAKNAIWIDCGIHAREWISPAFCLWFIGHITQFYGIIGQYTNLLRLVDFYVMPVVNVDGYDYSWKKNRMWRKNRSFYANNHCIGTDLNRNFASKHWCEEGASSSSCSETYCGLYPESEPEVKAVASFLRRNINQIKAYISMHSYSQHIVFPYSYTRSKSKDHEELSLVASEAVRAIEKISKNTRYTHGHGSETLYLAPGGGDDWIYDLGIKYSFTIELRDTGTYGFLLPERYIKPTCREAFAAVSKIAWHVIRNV
Description: Inhibition of activated human plasma TAFI incubated for 15 mins by chromogenic assay

[1] = Aqueous solubility of the compound at pH 7.4 at 25 degC; type: physicochemical
[2] = Lipophilicity, log D of the compound at pH 7.4 at 25 degC; type: physicochemical; conditions: buffer
[3] = Drug metabolism in human liver microsomes assessed as CYP450/FMO-mediated oxidative metabolism at 5 uM after 20 mins in presence of NADPH; type: ADME; conditions: read-out: Drug metabolism
[4] = Drug metabolism in Sprague-Dawley rat liver microsomes assessed as CYP450/FMO-mediated oxidative metabolism at 5 uM after 20 mins in presence of NADPH; type: ADME; conditions: read-out: Drug metabolism
[5] = Drug metabolism in Swiss CD1 mouse liver microsomes assessed as CYP450/FMO-mediated oxidative metabolism at 5 uM after 20 mins in presence of NADPH; type: ADME; conditions: read-out: Drug metabolism
[6] = Intrinsic clearance in human hepatocytes assessed per 10^6 cells; type: ADME, cell-based, Hepatocyte
[7] = Permeability across apical to basolateral side in human Caco2/TC7 cells at 20 uM after 120 mins by UPLC/ESI-MS-MS analysis; type: ADME, cell-based; conditions: Caco-2
Cytochrome P450 1A1 = molecular target: T2, Cytochrome P450 1A1 (Homo sapiens, UniProt P04798); test: Induction of CYP1A1 (unknown origin); type: ADME
T2 sequence (P04798 whole entry): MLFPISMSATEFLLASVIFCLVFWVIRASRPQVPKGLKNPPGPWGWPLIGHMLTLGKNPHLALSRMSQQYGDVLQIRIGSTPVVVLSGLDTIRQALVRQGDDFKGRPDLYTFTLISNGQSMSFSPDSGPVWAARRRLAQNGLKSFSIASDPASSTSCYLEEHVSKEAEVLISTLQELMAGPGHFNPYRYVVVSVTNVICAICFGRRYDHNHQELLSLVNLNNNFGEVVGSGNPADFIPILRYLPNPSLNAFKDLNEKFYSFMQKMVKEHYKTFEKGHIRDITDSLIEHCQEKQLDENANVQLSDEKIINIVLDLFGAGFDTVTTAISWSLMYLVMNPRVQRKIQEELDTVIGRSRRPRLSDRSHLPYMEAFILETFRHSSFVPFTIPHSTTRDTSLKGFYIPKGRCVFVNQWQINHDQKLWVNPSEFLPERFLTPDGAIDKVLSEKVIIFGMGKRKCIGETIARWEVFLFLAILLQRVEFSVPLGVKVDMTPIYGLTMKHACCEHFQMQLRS

Cytochrome P450 1A2 = molecular target: T3, Cytochrome P450 1A2 (Homo sapiens, UniProt P05177); test: Induction of CYP1A2 (unknown origin); type: ADME
T3 sequence (P05177 whole entry): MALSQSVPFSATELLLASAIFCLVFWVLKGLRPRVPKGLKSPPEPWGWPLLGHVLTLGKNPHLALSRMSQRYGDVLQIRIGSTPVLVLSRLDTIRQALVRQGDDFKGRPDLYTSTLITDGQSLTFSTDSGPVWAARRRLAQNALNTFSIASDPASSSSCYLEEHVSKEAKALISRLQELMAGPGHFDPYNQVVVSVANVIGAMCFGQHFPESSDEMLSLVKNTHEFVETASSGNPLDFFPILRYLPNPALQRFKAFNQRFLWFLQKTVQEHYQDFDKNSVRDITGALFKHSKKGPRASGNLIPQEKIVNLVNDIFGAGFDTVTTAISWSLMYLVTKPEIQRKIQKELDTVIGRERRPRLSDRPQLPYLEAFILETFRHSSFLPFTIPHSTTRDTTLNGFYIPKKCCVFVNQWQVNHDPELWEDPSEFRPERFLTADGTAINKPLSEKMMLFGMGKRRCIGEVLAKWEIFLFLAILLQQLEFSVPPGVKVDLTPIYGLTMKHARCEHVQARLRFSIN

Cytochrome P450 3A4 = Cytochrome P450 3A4 (Homo sapiens, UniProt P08684); test: Induction of CYP3A4 (unknown origin); type: ADME
[8] = molecular target: Voltage-gated inwardly rectifying potassium channel KCNH2 (Homo sapiens, UniProt Q12809); test: Inhibition of recombinant human ERG expressed in CHO cells by patch clamp method; type: cell-based
Sequence of Voltage-gated inwardly rectifying potassium channel KCNH2 (Q12809 whole entry): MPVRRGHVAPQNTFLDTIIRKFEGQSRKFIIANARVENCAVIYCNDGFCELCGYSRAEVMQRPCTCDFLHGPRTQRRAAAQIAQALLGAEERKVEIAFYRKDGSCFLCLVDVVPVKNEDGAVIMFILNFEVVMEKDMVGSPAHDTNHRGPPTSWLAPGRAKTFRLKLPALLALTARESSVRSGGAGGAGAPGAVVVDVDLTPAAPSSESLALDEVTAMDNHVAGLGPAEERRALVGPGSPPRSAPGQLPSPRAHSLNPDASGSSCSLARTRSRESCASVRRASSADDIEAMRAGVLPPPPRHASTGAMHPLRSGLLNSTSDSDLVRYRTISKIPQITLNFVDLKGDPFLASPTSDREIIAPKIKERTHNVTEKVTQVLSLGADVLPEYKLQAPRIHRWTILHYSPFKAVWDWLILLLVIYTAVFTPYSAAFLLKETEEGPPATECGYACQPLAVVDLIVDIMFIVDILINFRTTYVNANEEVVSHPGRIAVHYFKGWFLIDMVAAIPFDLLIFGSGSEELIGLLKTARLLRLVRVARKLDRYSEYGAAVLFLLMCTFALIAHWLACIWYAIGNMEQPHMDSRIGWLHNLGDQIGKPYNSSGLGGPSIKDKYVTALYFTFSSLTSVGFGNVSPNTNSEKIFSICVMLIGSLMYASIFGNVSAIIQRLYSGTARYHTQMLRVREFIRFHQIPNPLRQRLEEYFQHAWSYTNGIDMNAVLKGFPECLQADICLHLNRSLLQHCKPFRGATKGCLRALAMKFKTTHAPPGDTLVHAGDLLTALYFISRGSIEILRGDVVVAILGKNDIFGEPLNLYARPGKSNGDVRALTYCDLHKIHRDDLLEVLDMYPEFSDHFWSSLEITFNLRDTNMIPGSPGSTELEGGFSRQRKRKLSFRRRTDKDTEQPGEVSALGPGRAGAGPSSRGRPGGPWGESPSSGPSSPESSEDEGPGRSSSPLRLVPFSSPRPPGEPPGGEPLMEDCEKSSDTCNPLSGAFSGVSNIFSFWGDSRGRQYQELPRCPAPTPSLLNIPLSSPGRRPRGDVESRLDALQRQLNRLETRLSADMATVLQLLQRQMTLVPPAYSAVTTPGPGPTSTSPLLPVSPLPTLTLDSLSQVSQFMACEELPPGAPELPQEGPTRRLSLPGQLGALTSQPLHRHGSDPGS

Sequence of Cytochrome P450 3A4 (P08684 whole entry): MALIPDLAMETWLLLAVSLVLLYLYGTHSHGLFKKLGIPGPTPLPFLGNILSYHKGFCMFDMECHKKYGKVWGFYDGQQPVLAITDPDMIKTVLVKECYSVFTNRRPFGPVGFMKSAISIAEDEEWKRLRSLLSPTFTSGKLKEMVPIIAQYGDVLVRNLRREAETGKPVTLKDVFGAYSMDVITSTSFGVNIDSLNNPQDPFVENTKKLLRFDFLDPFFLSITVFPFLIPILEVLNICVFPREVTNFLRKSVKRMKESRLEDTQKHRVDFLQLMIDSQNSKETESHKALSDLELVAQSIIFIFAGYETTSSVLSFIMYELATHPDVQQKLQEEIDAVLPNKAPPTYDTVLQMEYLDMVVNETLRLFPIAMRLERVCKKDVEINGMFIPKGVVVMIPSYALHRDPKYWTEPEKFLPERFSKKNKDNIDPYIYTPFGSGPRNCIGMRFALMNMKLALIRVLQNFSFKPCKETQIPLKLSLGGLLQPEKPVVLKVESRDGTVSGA

IC50 (Carboxypeptidase B2): > 30 µM
Compound: CC1(C)[C@@H]2CC[C@@]1(C)[C@@H](NC(=O)[C@H](CC1CCCCC1)NS(=O)(=O)N[C@@H](CC1CCC(N)CC1)C(=O)O)C2 (stereo partly drawn)

IC50 (Carboxypeptidase B2): 0.003 µM
Compound: CC1(C)C2CCC1(C)[C@@H](NC(=O)[C@H](CC1CCCCC1)NC(=O)N[C@@H](CCCCN)C(=O)O)C2 (stereo partly drawn)

IC50 (Carboxypeptidase B2): 47 µM
Compound: CC1(C)[C@@H]2CC[C@@]1(C)[C@@H](NC(=O)[C@@H](NS(=O)(=O)N[C@@H](CCCCN)C(=O)O)C1CCCCC1)C2

IC50 (Carboxypeptidase B2): > 30 µM
Compound: CC(=O)NCCCC[C@H](NS(=O)(=O)N[C@@H](CC1CCCCC1)C(=O)N[C@H]1C[C@H]2CC[C@]1(C)C2(C)C)C(=O)O

Continued, molecule first:

Compound: NCCCC[C@H](NS(N)(=O)=O)C(=O)O
IC50 (Carboxypeptidase B2): 15 µM

Compound: NCCCC[C@H](NS(=O)(=O)NCC(=O)NC12CC3CC(CC(C3)C1)C2)C(=O)O
IC50 (Carboxypeptidase B2): > 30 µM

Compound: CC1(C)[C@@H]2CC[C@@]1(C)[C@@H](NC(=O)[C@H](CC1CCCCC1)NS(=O)(=O)N[C@@H](CCCCN)C(=O)O)C2.Cl
solubility [1]: 457 µg/mL | logD [2]: 2.02 | metabolised at 20 min, 5 µM [3]: 21% | metabolised at 20 min, 5 µM [4]: 8% | metabolised at 20 min, 5 µM [5]: 0% | CLH [6]: 0.043 mL/h | Papp A→B at 2 h, 20 µM [7]: 0.06 ×10⁻⁶ cm/s | Activity (Cytochrome P450 1A1): < 10% | Activity (Cytochrome P450 1A2): < 10% | Activity (Cytochrome P450 3A4): < 10% | IC50 [8]: > 10 µM

Compound: CC(C)[C@H](NS(=O)(=O)N[C@@H](CCCCN)C(=O)O)C(=O)NC12CC3CC(CC(C3)C1)C2
IC50 (Carboxypeptidase B2): > 30 µM
